Reference: patent US11827665B2, “Process for the manufacture of (2S,3S,4S,5R,6S)-3,4,5-trihydroxy-6-(((4AR,10AR)-7-hydroxy-1-propyl-1,2,3,4,4A,5,10,10A-octahydrobenzo[g]quinolin-6-yl)oxy)tetrahydro-2H-pyran-2-carboxylic acid” (H. Lundbeck A/S, priority 2019, dated 2023)

Experiments:
human 5-HT2B receptor [1] = biological target: T1, human 5-HT2B receptor (Homo sapiens, UniProt P41595); test: 5-HT2B agonist activity assay (IP1 production, HTRF); format: cell-based; conditions: for 5-HT2B receptor agonism (in words): example 6 and Table 2
T1 construct: host or cells: CHO
Experimental: Evaluation of the agonist activity of compounds (I), (Ia), (Ib), (Ic) and (Id) at the human 5-HT2B receptor was performed by Eurofins/Cerep (France) measuring the compound effects on inositol monophosphate (IP1) production using the HTRF detection method. Briefly, the human 5-HT2B receptor was expressed in transfected CHO cells. The cells were suspended in a buffer containing 10 mM Hepes/NaOH (pH 7.4), 4.2 mM KCl, 146 mM NaCl, 1 mM CaCl2, 0.5 mM MgCl2, 5.5 mM glucose and 50 mM LiCl, then distributed in microplates at a density of 4100 cells/well and incubated for 30 minutes at 37° C. in the presence of buffer (basal control), test compound or reference agonist. For stimulated control measurement, separate assay wells contained 1 μM 5-HT. Following incubation, the cells were lysed and the fluorescence acceptor (fluorophen D2-labeled IP1) and fluorescence donor (anti-IP1 antibody labeled with europium cryptate) were added. After 60 minutes at room temperature, the fluorescence transfer was measured at lambda (Ex) 337 nm and lambda (Em) 620 and 665 nm using a microplate reader (Rubystar, BMG). The IP1 concentration was determined by dividing the signal measured at 665 nm by that measured at 620 nm (ratio). The results were expressed as a percent of the control response to 1 μM 5-HT. The standard reference agonist was 5-HT, which was tested in each experiment at several concentrations to generate a concentration-response curve from which its EC50 value is calculated as described above for dopamine functional assays.

[2] = PK experiments in rats: plasma compound (I) after oral dosing of prodrugs; format: in vivo, Han Wistar rats; conditions: Wistar rats, doses equal to 287 μg/kg of compound (I)
Experimental: Plasma was placed on water-ice following collection. Final storage at approximately −70° C.
Mobile phase B: Acetonitrile. […] Flow rate 0.5 mL/min.
The rats had unrestricted access to the diet.
Mobile phase B: Acetonitrile+0.2% formic acid. […] Flow rate 0.3 mL/min.
Dosing and blood sampling for compound (Ic): Han Wistar rats were supplied by Envigo, UK. […] The rats received a standard laboratory diet Teklad 2014C. The rats had unrestricted access to the diet. […] Rats were given 494 μg/kg (Ic).

[3] = tested on: Parkinson's Disease animal models; conditions: WO 2010/097092; cited from earlier work
rat hepatocytes [4] = conditions: WO 2010/097092; cited from earlier work
human hepatocytes [5] = conditions: WO 2010/097092; cited from earlier work
rat locomotor activity = test: Rat locomotor activity (hyperactivity) assay, open field, with PK/PD; format: in vivo, male CD rats; conditions: for Relationship between plasma concentration and hyperactivity: (Id) 100 μg/kg p.o. (plasma compound (I)), apomorphine 3 mg/kg s.c. (plasma apomorphine)
Experimental: Animals were dosed at t=60 minutes after a 60-minutes habituation period in test chambers, and activity was monitored for 350 minutes thereafter.
In total, 206 male CD rats (Charles River, Germany) weighing 200-250 grams (165-190 grams upon arrival) were used in the study. Animals were housed at a standard temperature (22±1° C.) and in a light-controlled environment (lights on from 7 am to […]) with ad libitum access to food and water. The experiment described below was performed in accordance with the standard operating procedures of Charles River Discovery Research Services Finland Ltd. and in accordance with the national Animal Experiment Board of Finland (Eläinkoelautakunta, ELLA) authority on animal testing.
The test device is a square Plexiglass-arena (measuring 40×40×40 cm), in which the movement paths of the rats are recorded by an activity monitor (Med. Associates Inc.). Before the test period is initiated, rats are habituated to their test cage for 60 minutes. Upon completion of habituation, animals were treated with either compound or vehicle and placed back into the open field apparatus. The main test parameter measured is ambulatory distance (recorded in 5-minute segments). Overall time of measurement after receiving initial treatment was 360 minutes. Total follow up period in the study was 420 min, including 60 min of habituation.

human D1 receptor = biological target: T2, human D1 receptor (Homo sapiens, UniProt P21728); test: Dopamine D1 receptor agonism, HTRF cAMP assay; format: cell-based; conditions: example 5 and table 2 (D1 and D2 assays)
T2 construct: host or cells: HEK-293
Experimental: Dopamine D1 receptor agonism was measured using a HTRF cAMP from CisBio using the protocol developed by HD Biosciences (China). Briefly, the assay is a homogeneous time resolved-fluorescence resonance energy transfer (HTRF) assay that measures production of cAMP by cells in a competitive immunoassay between native cAMP produced by cells and cAMP-labeled with XL-665. A cryptate-labeled anti-cAMP antibody visualizes the tracer. The assay was performed in accordance with instructions from manufacturer.
Test compounds were added to wells of microplates (384 format). […] HTRF cAMP was measured by excitation of the donor with 337 nm laser (the “TRF light unit”) and subsequent (delay time 100 microseconds) measurement of cryptate and d2 emission at 615 nm and 665 nm over a time window of 200 microseconds with a 2000 microseconds time window between repeats/100 flashes). HTRF measurements were performed on an Envision microplate reader (PerkinElmer). The HTRF signal was calculated as the emission-ratio at 665 nm over 615 nm. The HTRF ratio readout for test compounds was normalized to 0% and 100% stimulation using control wells with DMSO-solvent or 30 μM dopamine. […]

human 5-HT2B receptor [6] = biological target: T1, human 5-HT2B receptor; test: 5-HT2B radioligand binding assay; conditions: [125I](±)DOI, CHO cell membranes, read-out: 5-HT2B binding affinity (% inhibition of control, specific binding)
Experimental: Membrane homogenates prepared from CHO cells expressing the human 5HT2B receptor were incubated for 60 minutes at room temperature with 0.2 nM [1251](±)DOI (1-(4-iodo-2, 5-dimethoxyphenyl)propan-2-amine) in the absence or presence of the test compound in a buffer containing 50 mM Tris-HCl (pH 7.4), 5 mM MgCl2, 10 μM pargyline and 0.1% ascorbic acid. Nonspecific binding is determined in the presence of 1 μM (±)DOI. Following incubation, the samples were filtered rapidly under vacuum through glass fiber filters (GF/B, Packard) presoaked with 0.3% polyethyleneimine (PEI) and rinsed several times with ice-cold 50 mM Tris-HCl using a 96-sample cell harvester (Unifilter, Packard). The filters were dried and counted for radioactivity in a scintillation counter (Topcount, Packard) using a scintillation cocktail (Microscint 0, Packard). The results are expressed as a percent inhibition of the control radioligand specific binding. The standard reference compound was (±)DOI, which was tested in each experiment at several concentrations to obtain a competition curve from which its IC50 is calculated.

rat hepatocytes [7] = test: Incubation with rat hepatocytes; format: in vitro ADME
Experimental: (§1) The cell concentration at incubation was 1×10^6 viable cells/mL. The incubations were performed in glass tubes at 37° C. with a total incubation volume of 3.5 mL and with duplicate incubations for each test item. The 3.5 mL of hepatocyte suspension was equilibrated for 10 minutes in a water bath set to 37° C. where after the incubations were initiated by adding 3.5 μL of a stock solution of the test item in DMSO (Dimethyl sulfoxide) and gently inverting the tubes. The final solvent concentration in the incubations was 0.1% DMSO. Samples of 600 μL were withdrawn from the incubations at the pre-determined time points of 0.25, 5, 15, 30 and 60 minutes after ensuring homogeneity of hepatocyte suspensions. The withdrawn volume was added to 1 mL Nunc cryotubes on wet ice containing 60 μL of ice-cold ascorbic acid (100 mg/mL) and 30 μL of ice cold 100 mM saccharic acid 1.4-lactone in 0.5 M citric acid. The tubes were mixed and 35 μL of a solution of ice cold 20% formic acid was added. The tubes were mixed thoroughly and stored at −80° C. awaiting analysis.

human hepatocytes [8] = test: Incubation with human hepatocytes; format: in vitro ADME
Experimental: as §1

[9] = Conversion in fresh rat blood; format: in vitro ADME; conditions: fresh blood 37° C., 1 μg/mL, 0-60 minutes
Experimental: (§2) Conversion of (Id) in human blood (average of 3 donors) and rat blood (average of 45 donors) to (I) was shown in fresh blood at 37° C. spiked with 1 μg/mL of (Id). (I) was measured at 0, 5, 15, 30 and 60 minutes in isolated plasma. Analysis method and Instrumentation as described in Example 7 below in the section “Instrumentation used for analysis of compound (I) from dosing of compounds (Ic) and (Id).”

[10] = Conversion in fresh human blood; format: in vitro ADME; conditions: fresh blood 37° C., 1 μg/mL, 0-60 minutes
Experimental: as §2

[11] = In vivo conversion after oral dosing in minipigs
[12] = man, oral dosing; cited from earlier work
Parkinson's disease = conditions: PD patients, intravenous (IV); cited from earlier work
[13] = (Id) 10 to 300 μg/kg p.o., apomorphine 3 mg/kg s.c., pramipexole 0.3 mg/kg s.c.
[14] = 1 μg/mL, 37° C., 0.25-60 minutes

T1 sequence (P41595 whole entry): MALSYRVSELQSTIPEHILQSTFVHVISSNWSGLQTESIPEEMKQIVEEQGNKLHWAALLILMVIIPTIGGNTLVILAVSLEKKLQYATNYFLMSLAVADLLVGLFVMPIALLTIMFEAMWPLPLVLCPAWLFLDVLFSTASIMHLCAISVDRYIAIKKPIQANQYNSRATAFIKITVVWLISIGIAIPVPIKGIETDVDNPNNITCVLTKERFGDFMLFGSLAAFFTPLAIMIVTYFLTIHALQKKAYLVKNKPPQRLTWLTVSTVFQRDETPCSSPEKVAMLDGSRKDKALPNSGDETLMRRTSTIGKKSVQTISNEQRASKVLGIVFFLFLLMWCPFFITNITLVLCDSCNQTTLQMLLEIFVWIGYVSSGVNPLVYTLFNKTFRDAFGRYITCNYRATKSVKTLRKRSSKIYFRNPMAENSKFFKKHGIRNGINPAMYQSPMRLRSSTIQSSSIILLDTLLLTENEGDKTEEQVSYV
T2 sequence (P21728 whole entry): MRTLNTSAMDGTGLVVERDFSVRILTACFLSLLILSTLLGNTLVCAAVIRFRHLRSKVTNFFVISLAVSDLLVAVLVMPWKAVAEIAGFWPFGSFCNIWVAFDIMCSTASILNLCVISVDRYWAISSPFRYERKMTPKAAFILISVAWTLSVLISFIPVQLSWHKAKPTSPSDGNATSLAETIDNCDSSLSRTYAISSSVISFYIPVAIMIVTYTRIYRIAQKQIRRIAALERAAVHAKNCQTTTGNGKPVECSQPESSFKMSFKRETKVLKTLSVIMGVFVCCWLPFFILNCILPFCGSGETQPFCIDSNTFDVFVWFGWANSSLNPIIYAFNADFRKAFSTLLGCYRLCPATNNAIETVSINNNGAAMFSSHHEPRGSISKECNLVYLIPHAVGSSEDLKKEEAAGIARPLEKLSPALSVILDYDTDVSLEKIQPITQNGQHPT

CCCN1CCC[C@@H]2CC3=C(CCCC3=O)C[C@H]21 [compound (Ia)]
5-HT2B agonist effect @ 30 μM (human 5-HT2B receptor [1]; 30 μM, percent of control response to 1 μM 5-HT): 58% | Plasma profile of compound (I) after oral dosing of the prodrug (in words) [2]: early and high peak concentrations of compound (I) | Efficacy in animal models relevant for Parkinson's Disease [3]: effective

CCCN1CCC[C@@H]2Cc3c(ccc4c3OCO4)C[C@H]21 [compound (Ib)]
5-HT2B receptor agonism (in words) (human 5-HT2B receptor [1]): agonist of the 5-HT2B receptor | Plasma profile of compound (I) after oral dosing of the prodrug (in words) [2]: early and high peak concentrations of compound (I) | Conversion of (Ib) to compound (I) in rat hepatocytes (rat hepatocytes [4]): demonstrated | Conversion of (Ib) to compound (I) in human hepatocytes (human hepatocytes [5]): demonstrated | Efficacy in animal models relevant for Parkinson's Disease [3]: effective

CN1CCc2cccc3c2[C@H]1Cc1ccc(O)c(O)c1-3 [apomorphine]
Relationship between plasma concentration and hyperactivity (rat locomotor activity): correlation between plasma concentrations of apomorphine and hyperactive behaviour | Locomotor activity: start of effect post-administration (rat locomotor activity; [13]): immediate

CCCN1CCC[C@@H]2Cc3c(ccc(O)c3O[C@@H]3O[C@H](C(=O)O)[C@@H](O)[C@H](O)[C@H]3O)C[C@H]21 [compound (Id), (2S,3S,4S,5R,6S)-3,4,5-trihydroxy-6-(((4aR,10aR)-7-hydroxy-1-propyl-1,2,3,4,4a,5,10,10a-octahydrobenzo[g]quinolin-6-yl)oxy)tetrahydro-2H-pyran-2-carboxylic acid]
In vitro dopaminergic activity (in words) (human D1 receptor): no in vitro dopaminergic activity | 5-HT2B receptor agonism (in words) (human 5-HT2B receptor [1]): not a 5-HT2B agonists | inhibition at 10 µM (human 5-HT2B receptor [6]): -25% | Plasma profile of compound (I) after oral dosing of the prodrug (in words) [2]: slower absorption rate avoiding rapid peak concentrations | Relationship between plasma concentration and hyperactivity (rat locomotor activity): correlate with the plasma concentrations of compound (I) | Locomotor activity: start of effect post-administration (rat locomotor activity; [13]): ~2 h | Locomotor activity: end of effect post administration (rat locomotor activity; (Id) 10 to 300 μg/kg p.o., apomorphine 3 mg/kg s.c., recording until 415-minute time point): lasting until the end of recording | Total distance travelled (FIG. 3) (rat locomotor activity; versus vehicle, (Id) p.o., apomorphine 3 mg/kg s.c., pramipexole 0.3 mg/kg s.c.): significantly increased activity | Conversion of (Id) to compound (I) in rat hepatocytes (rat hepatocytes [7]; [14]): time dependent conversion | Conversion of (Id) to compound (I) in human hepatocytes (human hepatocytes [8]; [14]): time dependent conversion | Conversion of (Id) to compound (I) in rat blood [9]: time dependent conversion | Conversion of (Id) to compound (I) in human blood [10]: time dependent conversion | In vivo conversion of (Id) to compound (I) [11]: observed

CCCc1cc2c(s1)CN[C@@H]1CCc3cc(OC(C)=O)c(OC(C)=O)cc3[C@@H]21 [adrogolide]
Oral bioavailability [12]: ~4% | Antiparkinson efficacy (Parkinson's disease): comparable to that of L-DOPA

CCCN1CCC[C@@H]2Cc3c(ccc(O)c3O)C[C@H]21 [compound (I), (4aR,10aR)-1-Propyl-1,2,3,4,4a,5,10,10a-octahydro-benzo[g]quinoline-6,7-diol]
Conjugation of compound (I) in rat hepatocytes (rat hepatocytes [7]): conjugated in rat and human hepatocytes to sulfate and glucuronide derivatives | Conjugation of compound (I) in human hepatocytes (human hepatocytes [8]): conjugated in rat and human hepatocytes to sulfate and glucuronide derivatives | Efficacy in animal models relevant for Parkinson's Disease [3]: effective

CCCN1CCC[C@@H]2Cc3c(ccc(OC(=O)C(C)(C)C)c3OC(=O)C(C)(C)C)C[C@H]21 [compound (Ic)]
5-HT2B agonist effect @ 10 μM (human 5-HT2B receptor [1]; 10 μM, percent of control response to 1 μM 5-HT): −5% @ 10 μM | Plasma profile of compound (I) after oral dosing of the prodrug (in words) [2]: extremely low
